Assay results taken from patent publication US10821115B2, “Compounds that inhibit Mcl-1 protein” (priority 2017, dated 2020).

The molecules below were run on human multiple myeloma cell line, OPM-2 (assay: Cell viability assay (OPM-2 10 FBS), CellTiter-Glo). Settings: Homo sapiens, OPM-2, 16 h, read-out: OPM-2 10% FBS IC50 IP, OPM-2 cells, 10% FBS, 16 h, CellTiter-Glo.
Assay type: cell-based
Method in brief: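 IC50 values come from 4-parameter logistic fits of luminescence signals reflecting cell viability. Treatment lasted 16 h at 37 °C in complete medium with 10% FBS, starting from 3000 cells/well.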
With `CO[C@@]1(CC(=O)NCCO)/C=C/C[C@H](C)[C@@H](C)S(=O)(=O)NC(=O)c2ccc3c(c2)N(C[C@@H]2CC[C@H]21)C[C@@]1(CCCc2cc(Cl)ccc21)CO3` [Example 100465, 2-((1S,3′R,6′R,7′S,8′E,11′S,12′R)-6-chloro-7′-methoxy-11′,12′-dimethyl-13′,13′-dioxido-15′-oxo-3,4-dihydro-2H-spiro[naphthalene-1,22′-[20]oxa[13]thia[1,14]diazatetracyclo [14.7.2.0~3,6~.0~19,24~]pentacosa[8,16,18,24]tetraen]-7′-yl)-N-(2-hydroxyethyl)acetamide] the IC50 was 729 nM. Molecule `COC(=O)[C@H](NC(=O)C[C@]1(OC)/C=C/C[C@H](C)[C@@H](C)S(=O)(=O)NC(=O)c2ccc3c(c2)N(C[C@@H]2CC[C@H]21)C[C@@]1(CCCc2cc(Cl)ccc21)CO3)C(C)=O` [Example 100582] has an IC50 of 1120 nM. With `CO[C@@]1(CC(N)=O)/C=C/C[C@H](C)[C@@H](C)S(=O)(=O)NC(=O)c2ccc3c(c2)N(C[C@@H]2CC[C@H]21)C[C@@]1(CCCc2cc(Cl)ccc21)CO3` [Example 100589, 2-((1S,3′R,6′R,7′S,8′E,11′S,12′R)-6-chloro-7′-methoxy-11′,12′-dimethyl-13′,13′-dioxido-15′-oxo-3,4-dihydro-2H-spiro[naphthalene-1,22′-[20]oxa[13]thia[1,14]diazatetracyclo [14.7.2.0~3,6~.0~19,24~]pentacosa[8,16,18,24]tetraen]-7′-yl)acetamide] the IC50 was 3330 nM. With `COC(=O)C(C)(C)NC(=O)C[C@]1(OC)/C=C/C[C@H](C)[C@@H](C)S(=O)(=O)NC(=O)c2ccc3c(c2)N(C[C@@H]2CC[C@H]21)C[C@@]1(CCCc2cc(Cl)ccc21)CO3` [Example 100544, methyl N-(((1S,3′R,6′R,7′S,8′E,11′S,12′R)-6-chloro-7′-methoxy-11′,12′-dimethyl-13′,13′-dioxido-15′-oxo-3,4-dihydro-2H-spiro[naphthalene-1,22′-[20]oxa[13]thia[1,14]diazatetracyclo [14.7.2.0~3,6~.0~19,24~]pentacosa[8,16,18,24]tetraen]-7′-yl)acetyl)-2-methylalaninate] the IC50 was 306 nM. Work on `C[C@@H]1[C@@H](C)C/C=C/[C@](O)(c2ccc(F)nc2)[C@@H]2CC[C@H]2CN2C[C@@]3(CCCc4cc(Cl)ccc43)COc3ccc(cc32)C(=O)NS1(=O)=O` [Example 100420, (1S,3′R,6′R,7′R,8′E,11′S,12′R)-6-chloro-7′-(6-fluoro-3-pyridinyl)-7′-hydroxy-11′,12′-dimethyl-3,4-dihydro-2H,15′H-spiro[naphthalene-1,22′-[20]oxa[13]thia[1,14]diazatetracyclo [14.7.2.0~3,6~.0~19,24~]pentacosa[8,16,18,24]tetraen]-15′-one 13′,13′-dioxide] yielded an IC50 of 161 nM. With `C[C@@H]1[C@@H](C)CCC[C@](CO)(CN2CCOCC2)[C@@H]2CC[C@H]2CN2C[C@@]3(CCCc4cc(Cl)ccc43)COc3ccc(cc32)C(=O)NS1(=O)=O` [Example 100406, (1S,3′R,6′R,7′R,11′S,12′R)-6-chloro-7′-(hydroxymethyl)-11′,12′-dimethyl-7′-(4-morpholinylmethyl)-3,4-dihydro-2H,15′H-spiro[naphthalene-1,22′-[20]oxa[13]thia[1,14]diazatetracyclo [14.7.2.0~3,6~.0~19,24~]pentacosa[16,18,24]trien]-15′-one 13′,13′-dioxide] the IC50 was 747 nM.

Same assay, conditions: Homo sapiens, OPM-2, 16 h, read-out: OPM-2 10% FBS IC50 IP, OPM-2 cells, 10% FBS, 16 h incubation
Work on `CO[C@@]1(CN2CCC(N3CCOCC3)CC2)/C=C/C[C@H](C)[C@@H](C)S(=O)(=O)NC(=O)c2ccc3c(c2)N(C[C@@H]2CC[C@H]21)C[C@@]1(CCCc2cc(Cl)ccc21)CO3` [Example 263, (1S,3′R,6′R,7′S,8′E,11′S,12′R)-6-chloro-7′-methoxy-11′,12′-dimethyl-7′-((4-(4-morpholinyl)-1-piperidinyl)methyl)-3,4-dihydro-2H,15′H-spiro[naphthalene-1,22′-[20]oxa[13]thia[1,14]diazaetracyclo [14.7.2.0~3,6~.0~19,24~]pentacosa[8,16,18,24]tetraen]-15′-one 13′,13′-dioxide] yielded an IC50 of 124 nM. In the case of `CCO[C@@]1(CN2CCN3CCCC[C@@H]3C2)/C=C/C[C@H](C)[C@@H](CCOC)S(=O)(=O)NC(=O)c2ccc3c(n2)N(C[C@@H]2CC[C@H]21)C[C@@]1(CCCc2cc(Cl)ccc21)CO3` [Example 370, (1S,3′R,6′R,7′S,8′E,11′S,12′R)-6-chloro-7′-ethoxy-12′-(2-methoxyethyl)-11′-methyl-7′-((9aR)-octahydro-2H-pyrido[1,2-a]pyrazin-2-ylmethyl)-3,4-dihydro-2H,15′H-spiro[naphthalene-1,22′-[20]oxa[13]thia[1,14,25]triazatetracyclo [14.7.2.0~3,6~.0~19,24~]pentacosa[8,16,18,24]tetraen]-15′-one 13′,13′-dioxide], the IC50 is reported as 369 nM. With `CCO[C@@]1(CN2CCC(N(CCOC)CCOC)CC2)/C=C/C[C@H](C)[C@@H](C)S(=O)(=O)NC(=O)c2ccc3c(c2)N(C[C@@H]2CC[C@H]21)C[C@@]1(CCCc2cc(Cl)ccc21)CO3` [Example 312, (1S,3′R,6′R,7′S,8′E,11′S,12′R)-7′-((4-(bis(2-methoxyethyl)amino)-1-piperidinyl)methyl)-6-chloro-7′-ethoxy-11′,12′-dimethyl-3,4-dihydro-2H,15′H-spiro[naphthalene-1,22′-[20]oxa[13]thia[1,14]diazatetracyclo [14.7.2.0~3,6~.0~19,24~]pentacosa[8,16,18,24]tetraen]-15′-one 13′,13′-dioxide] the IC50 was 408 nM. Work on `C[C@@H]1[C@@H](C)C/C=C/[C@]2(CN(Cc3ccccc3)CCO2)[C@@H]2CC[C@H]2CN2C[C@@]3(CCCc4cc(Cl)ccc43)COc3ccc(cc32)C(=O)NS1(=O)=O` [Example 138, (1 S,3′R,6′R,7′R,8′E, 11′S,12′R)-4″-benzyl-6-chloro-11′,12′-dimethyl-3,4-dihydro-2H,15′H-dispiro[naphthalene-1,22′-[20]oxa[13]thia[1,14]diazatetracyclo[14.7.2.0-3,6˜.0˜19,24˜]pentacosa[8,16,18,24]tetraene-7′,2″-[1,4]oxazinan]-15′-one 13′,13′-dioxide] yielded an IC50 greater than 33300 nM. Molecule `CO[C@]1(CN2CCN(C3(C)COC3)CC2)/C=C/C[C@H](C)[C@@H](C)S(=O)(=O)NC(=O)c2ccc3c(c2)N(C[C@@H]2CC[C@H]21)C[C@@]1(CCCc2cc(Cl)ccc21)CO3` [Example 319, (1S,3′R,6′R,7′R,8′E,11′S,12′R)-6-chloro-7′-methoxy-11′,12′-dimethyl-7′-((4-(3-methyl-3-oxetanyl)-1-piperazinyl)methyl)-3,4-dihydro-2H,15′H-spiro[naphthalene-1,22′-[20]oxa[13]thia[1,14]diazatetracyclo [14.7.2.0~3,6~.0~19,24~]pentacosa[8,16,18,24]tetraen]-15′-one 13′,13′-dioxide] has an IC50 of 87 nM. `CC[C@@H]1CC/C=C/[C@@](CN2CCN3CCCC[C@@H]3C2)(OC)[C@@H]2CC[C@H]2CN2C[C@@]3(CCCc4cc(Cl)ccc43)COc3ccc(cc32)C(=O)N(C)S1(=O)=O` [Example 33, (1 S,3′R,6′R,7′R,8′E,12′R)-6-chloro-12′-ethyl-7′-methoxy-14′-methyl-7′-((9aR)-octahydro-2H-pyrido[1,2-a]pyrazin-2-ylmethyl)-3,4-dihydro-2H,15′H-spiro[naphthalene-1,22′-[20]oxa[13]thia[1,14]diazatetracyclo[14.7.2.0-3,6˜.0˜19,24˜]pentacosa[8,16,18,24]tetraen]-15′-one 13′,13′-dioxide] gave an IC50 of 5570 nM.

Same assay, conditions: read-out: OPM-2 10% FBS IC50 IP; OPM-2 cells, 10% FBS, 16 h incubation
Work on `COCC[C@@H]1[C@@H](C)C/C=C/[C@](CN2CCN3CCOC[C@@H]3C2)(OC)[C@@H]2CC[C@H]2CN2C[C@@]3(CCCc4cc(Cl)ccc43)COc3ccc(nc32)C(=O)NS1(=O)=O` [Example 20, (1 S,3′R,6′R,7′S,8′E,11′S, 12′R)-6-chloro-7′-((9aS)-hexahydropyrazino[2,1-c][1,4]oxazin-8(1H)-ylmethyl)-7′-methoxy-12′-(2-methoxyethyl)-11′-methyl-3,4-dihydro-2H,15′H-spiro[naphthalene-1,22′-[20]oxa[13]thia[1,14,25]triazatetracyclo[14.7.2.0-3,6˜.0˜19,24˜]pentacosa[8,16,18,24]tetraen]-15′-one 13′,13′-dioxide] yielded an IC50 of 22 nM. `CO[C@]1(CN2CCN3CCN(C(C)=O)C[C@@H]3C2)/C=C/C[C@H](C)[C@@H](C)S(=O)(=O)NC(=O)c2ccc3c(c2)N(C[C@@H]2CC[C@H]21)C[C@@]1(CCCc2cc(Cl)ccc21)CO3` (single isomer, unassigned) [Example 230] gave an IC50 of 70 nM. `C[C@@H]1[C@@H](C)C/C=C/[C@](O)(CN2CCN3CCOC[C@@H]3C2)[C@@H]2CC[C@H]2CN2C[C@@]3(CCCc4cc(Cl)ccc43)COc3ccc(cc32)C(=O)NS1(=O)=O` [Example 213, (1 S,3′R,6′R,7′R,8′E,11′S,12′R)-6-chloro-7′-((9aS)-hexahydropyrazino[2,1-c][1,4]oxazin-8(1H)-ylmethyl)-7′-hydroxy-11′,12′-dimethyl-3,4-dihydro-2H, 15′H-spiro[naphthalene-1,22′-[20]oxa[13]thia[1,14]diazatetracyclo[14.7.2.0-3,6˜.0˜19,24˜]pentacosa[8,16,18,24]tetraen]-15′-one 13′,13′-dioxide] gave an IC50 of 400 nM. For `CCO[C@]1(CN2CCN3CCOC[C@@H]3C2)CCC[C@H](C)[C@@H](CCOC)S(=O)(=O)NC(=O)c2ccc3c(c2)N(C[C@@H]2CC[C@H]21)C[C@@]1(CCCc2ccccc21)CO3` [Example 517, (1S,3′R,6′R,7′R,11′S,12′R)-7′-ethoxy-7′-((9aS)-hexahydropyrazino[2,1-c][1,4]oxazin-8(1H)-ylmethyl)-12′-(2-methoxyethyl)-11′-methyl-3,4-dihydro-2H, 15′H-spiro[naphthalene-1,22′-[20]oxa[13]thia[1,14]diazatetracyclo[14.7.2.0-3,6˜.0˜19,24˜]pentacosa[16,18,24]trien]-15′-one 13′,13′-dioxide], the IC50 was 252 nM.
